In PubChem BioAssay (NCI):
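Tested at 5 concentrations; 48 h exposure; 96-well plates; endpoints linearly interpolated, else capped at highest concentration. The concentration for full growth arrest is given as TGI.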

Key:
Test in all cases: NCI anticancer screen, dose series, 48 h
[1] = tested on: 786-0 renal
[2] = tested on: A498 renal
[3] = tested on: A549 NSCLC
[4] = tested on: ACHN renal
[5] = tested on: CCRF-CEM leukemia
[6] = tested on: COLO 205 colon
[7] = tested on: DLD-1 colon
[8] = tested on: DMS 114 small cell lung
[9] = tested on: DMS 273 small cell lung
[10] = tested on: HCT-116 colon
[11] = tested on: HCT-15 colon
[12] = tested on: HL-60(TB) leukemia
[13] = tested on: HOP-18 NSCLC
[14] = tested on: HOP-62 NSCLC
[15] = tested on: HT29 colon
[16] = tested on: IGROV1 ovarian
[17] = tested on: K-562 leukemia
[18] = tested on: KM12 colon
[19] = tested on: KM20L2 colon
[20] = tested on: LOX IMVI melanoma
[21] = tested on: LXFL 529 NSCLC
[22] = tested on: M14 melanoma
[23] = tested on: M19-MEL melanoma
[24] = tested on: MALME-3M melanoma
[25] = tested on: MOLT-4 leukemia
[26] = tested on: NCI-H23 lung
[27] = tested on: NCI-H460 lung
[28] = tested on: NCI-H522 lung
[29] = tested on: OVCAR-3 ovarian
[30] = tested on: OVCAR-4 ovarian
[31] = tested on: OVCAR-5 ovarian
[32] = tested on: OVCAR-8 ovarian
[33] = tested on: RPMI-8226 leukemia
[34] = tested on: RXF 393 renal
[35] = tested on: SF-295 CNS
[36] = tested on: SF-539 CNS
[37] = tested on: SK-MEL-2 melanoma
[38] = tested on: SK-MEL-28 melanoma
[39] = tested on: SK-MEL-5 melanoma
[40] = tested on: SN12C renal
[41] = tested on: SNB-19 CNS
[42] = tested on: SNB-75 CNS
[43] = tested on: SNB-78 CNS
[44] = tested on: SR leukemia
[45] = tested on: SW-620 colon
[46] = tested on: TK-10 renal
[47] = tested on: U251 CNS
[48] = tested on: UACC-257 melanoma
[49] = tested on: UACC-62 melanoma
[50] = tested on: UO-31 renal
[51] = tested on: BT-549 breast
[52] = tested on: CAKI-1 renal
[53] = tested on: DU-145 prostate
[54] = tested on: EKVX NSCLC
[55] = tested on: HCC-2998 colon
[56] = tested on: HOP-92 NSCLC
[57] = tested on: HS 578T breast
[58] = tested on: MCF7 breast
[59] = tested on: MDA-MB-231 breast
[60] = tested on: MDA-MB-435
[61] = tested on: MDA-N
[62] = tested on: NCI-H226 lung
[63] = tested on: NCI/ADR-RES ovarian
[64] = tested on: PC-3 prostate
[65] = tested on: SF-268 CNS
[66] = tested on: SK-OV-3 ovarian
[67] = tested on: T-47D breast

O=C1/C(=C/c2ccccc2)CN(C(=O)C(F)(F)F)C/C1=C\c1ccccc1 was tested, and the TGI [1] was 3.28 µM, the TGI [2] was 4.41 µM and the TGI [3] was 12.1 µM. It also gave a TGI [4] of 4.99 µM, a TGI [5] of 8.03 µM and a TGI [6] of 5.11 µM. The TGI [7] was 4.27 µM, the TGI [8] was 3.33 µM and the TGI [9] was 2.95 µM. The TGI [10] was 1.08 µM, the TGI [11] was 5.33 µM and the TGI [12] was 2.85 µM. For the same compound, the TGI [13] was 18.4 µM, the TGI [14] was 29.6 µM and the TGI [15] was 3.01 µM. For the same compound, the TGI [16] was 5.55 µM, the TGI [17] was over 100 µM and the TGI [18] was 3.98 µM. The TGI [19] was 4.34 µM, the TGI [20] was 2.5 µM and the TGI [21] was 3.26 µM. It also gave a TGI [22] of 3.29 µM, a TGI [23] of 3.1 µM and a TGI [24] of 15.9 µM. The TGI [25] was 79.6 µM, the TGI [26] was 4.52 µM and the TGI [27] was 2.97 µM. The TGI [28] was 5.77 µM, the TGI [29] was 10.7 µM and the TGI [30] was 4.72 µM. The TGI [31] was 8.37 µM, the TGI [32] was 3.37 µM and the TGI [33] was 0.932 µM. The TGI [34] was 3.63 µM, the TGI [35] was 3.13 µM and the TGI [36] was 4.06 µM. It also gave a TGI [37] of 23.1 µM, a TGI [38] of 3.45 µM and a TGI [39] of 3.26 µM. For the same compound, the TGI [40] was 3.12 µM, the TGI [41] was 14.8 µM and the TGI [42] was 19 µM. It also gave a TGI [43] of 11.4 µM, a TGI [44] of 5.48 µM and a TGI [45] of 1.83 µM. The TGI [46] was 13.4 µM, the TGI [47] was 2.95 µM and the TGI [48] was 3.32 µM. The TGI [49] was 3.76 µM and the TGI [50] was 4.77 µM.

Work on CC1CSC(=S)N1C(=O)N1C(=S)SCC1C (stereo unspecified) yielded a TGI [1] of 53.6 µM, a TGI [2] of 60.7 µM and a TGI [3] of 91.8 µM. For the same compound, the TGI [4] was 36.1 µM, the TGI [51] was 63.9 µM and the TGI [52] was 61.7 µM. The TGI [5] was 48.5 µM, the TGI [6] was 37.2 µM and the TGI [7] was 44.4 µM. It also gave a TGI [8] of over 100 µM, a TGI [9] of 49.5 µM and a TGI [53] of 45.2 µM. For the same compound, the TGI [54] was 63.4 µM, the TGI [55] was over 80.5 µM and the TGI [10] was 42.9 µM. For the same compound, the TGI [11] was 34.8 µM, the TGI [12] was 88.3 µM and the TGI [13] was over 100 µM. The TGI [14] was over 82.8 µM, the TGI [56] was 73 µM and the TGI [57] was over 82.9 µM. It also gave a TGI [15] of 73 µM, a TGI [16] of 53.3 µM and a TGI [17] of 60.9 µM. The TGI [18] was 84.9 µM, the TGI [19] was over 100 µM and the TGI [20] was 36.4 µM. It also gave a TGI [21] of over 100 µM, a TGI [22] of 53.9 µM and a TGI [23] of 81.7 µM. The TGI [24] was 45.2 µM, the TGI [58] was 60.5 µM and the TGI [59] was 64.8 µM. For the same compound, the TGI [60] was 46.6 µM, the TGI [61] was 50.7 µM and the TGI [25] was 81.9 µM. The TGI [62] was 71.7 µM, the TGI [26] was 43.1 µM and the TGI [27] was 59 µM. It also gave a TGI [28] of 26.7 µM, a TGI [63] of 41.7 µM and a TGI [29] of 82.3 µM. The TGI [31] was 64.7 µM, the TGI [32] was 32.3 µM and the TGI [64] was 67.2 µM. For the same compound, the TGI [33] was 66.2 µM, the TGI [34] was 38.6 µM and the TGI [65] was 74.6 µM. The TGI [35] was 98.1 µM, the TGI [36] was 41.4 µM and the TGI [37] was 53.2 µM. The TGI [38] was 41.9 µM, the TGI [39] was 34.8 µM and the TGI [66] was over 100 µM. The TGI [40] was 54.4 µM, the TGI [41] was over 100 µM and the TGI [42] was 88.1 µM. It also gave a TGI [43] of over 100 µM, a TGI [44] of 59.3 µM and a TGI [45] of 49.4 µM. For the same compound, the TGI [67] was over 100 µM, the TGI [46] was 74.8 µM and the TGI [47] was 53.5 µM. It also gave a TGI [48] of 43.4 µM, a TGI [49] of 27.4 µM and a TGI [50] of 58.7 µM.
